Results as given in patent US20250108038A1 (priority 2023, published 2025).

Columns and labels:
CYP2C9 = CYP2C9 (Homo sapiens, UniProt P11712); assay: in vitro; details: both, pH 7.4
[1] = Plasma protein binding by equilibrium dialysis; assay type: in vitro ADME, mouse; details: for % Recovery / % Unbound: mouse plasma
Description: Samples of spiked plasma and blank buffer (Dulbecco's phosphate-buffered saline, DPBS) and spiked brain homogenate and blank DPBS added to opposing sides of a dialysis membrane were collected from triplicate equilibrium dialysis chambers prior to (t=0) and following 1, 2, 4 and 6 hours of incubation at 37° C. […] The LC-MS/MS method(s) for analytes (Compound I-19, Compound A and Compound B) was cross-qualified for the analysis of the DPBS samples.
A secondary stock solution of 200 μM (74.2 ug/mL) will be prepared in DMSO. This secondary stock solution will then be diluted 100-fold to 2 μM ([…]) with male CD-1 mouse plasma and brain homogenate (1:2 v/v brain:Dulbecco's phosphate buffered saline, pH 7-7.2) or buffer (DPBS).
To 2.97 mL aliquots of thawed mouse plasma or brain homogenate warmed to 37° C., 30 ul aliquots of the secondary stock solution of the test compound will be added for final concentrations of 2 μM (0.742 ug/mL). An appropriate volume of warmed buffer (DPBS) will also be spiked with the test compound at a concentration of 2 μM ([…]). Triplicate aliquots (50 μL) of each spiked plasma, brain homogenate and buffer solution will be collected prior to dialysis into labeled 1.5 mL polypropylene tubes and then stored at approximately −80° C. until bioanalysis.
Equilibrium dialysis will be performed in a 96-well Teflon dialysis unit (HTDialysis, Gales Ferry, CT). Each well of the unit consists of two chambers separated by a vertically aligned dialysis membrane (regenerated cellulose) with a molecular weight cut-off of 12-14 KDa. The equilibrium dialysis membranes will first be presoaked in deionized water for 30 min, then soaked in 20% ethanol for 20 min, followed by rinsing twice with deionized water.
The equilibrium dialysis apparatus will be assembled according to the manufacturer's directions. One chamber of each well will be immediately filled with 150 μL of blank buffer (to prevent membrane dehydration). Aliquots (150 μL) of spiked plasma, spiked brain homogenate and spiked buffer will then be added to the opposing chamber in each well. Three wells per time point per matrix will be used. The top of the plate will be sealed with an adhesive sealing film to prevent evaporation and maintain constant pH during incubation.
The dialysis apparatus will be incubated at 37° C. in an orbital shaker/incubator (Lab-Line Enviro Shaker) set at 75 rpm.
Following 1, 2, 4 and 6 hours of incubation, samples from each plasma, brain homogenate and buffer compartment will be collected and the sample volume will be documented.

CYP2C19 = CYP2C19 (Homo sapiens, UniProt P33261)
C57BL/6 mice = assay: Tail Suspension Test; assay type: in vivo, mouse; details: for Dunnett's Multiple Comparison Test Mean Diff., immobility on the TST: percent immobility
Source text: The Tail Suspension Test is a mouse behavioral test useful for screening for potential antidepressant drugs. The tail suspension test is an experimental method used in scientific research to measure a state of being helpless in rodents, especially in mice. It is based on the observation that if a mouse is subjected to short term inescapable stress, then it will stop struggling. Immobility is quantified by measuring the amount of time lacking whole-body activity.
A cohort of 32 adult male mice was used for locomotor activity and a separate cohort of 40 male mice were used for tail suspension (C57BL/6, 7-8 weeks old; body weights 18-25 g, Charles River Laboratories). Upon arrival at the facility, animals were group-housed (5/cage) with access to food and water ad libitum. Animals were maintained on a 12/12-hour light/dark cycle in a temperature—(22±2° C.) and humidity—(approx. 50%) controlled room. Animals were numbered consecutively by tail ID marker in each home cage. Each home cage was identified by a colored ID card indicating the study number, sex, animal numbers and date of birth.
Animals (8/group) were injected (10 mL/kg, ip) 30 min prior to the TST. For locomotor activity monitoring, mice were injected (10 mL/kg, ip; around 12-1 pm) after a full 24 hr period of recordings were collected for baseline activity. For both locomotor activity recordings and TST, PV-03446 doses included 0.3, 1, 3, and 10 mg/kg.
Tail Suspension Test: A piezoelectric sensor operated by the SmartCage system was utilized and video recording was conducted for scoring. Once animals were acclimated to the testing room, the TST was initiated by placing the tail of the test mouse onto the piezoelectric sensor-board and hanging the mouse upside down. The recording period was initiated once the mouse was upside down and lasted for 6 min. At the end of the recording period, the mouse was removed from the recording device and returned to its home cage. The immobilized time, indicating depression-like behavior, was quantified using manual scoring of the video recording from 120 seconds to 360 seconds during the TST. The percent immobility time was calculated as (immobility time (seconds)/240 seconds)*100.
Group differences found to have normal distribution were evaluated using a 1-way ANOVA followed by a Dunnett's Multiple Comparison Test to compare all treatment groups to the vehicle control. Statistical significance was set at p≤0.05.

[2] = dialysis time 1 h, 2 μM, 37° C.
[3] = dialysis time 2 h, 2 μM, 37° C.
[4] = dialysis time 4 h, 2 μM, 37° C.
[5] = dialysis time 6 h, 2 μM, 37° C.

CYP2C19, sequence (P33261 whole entry): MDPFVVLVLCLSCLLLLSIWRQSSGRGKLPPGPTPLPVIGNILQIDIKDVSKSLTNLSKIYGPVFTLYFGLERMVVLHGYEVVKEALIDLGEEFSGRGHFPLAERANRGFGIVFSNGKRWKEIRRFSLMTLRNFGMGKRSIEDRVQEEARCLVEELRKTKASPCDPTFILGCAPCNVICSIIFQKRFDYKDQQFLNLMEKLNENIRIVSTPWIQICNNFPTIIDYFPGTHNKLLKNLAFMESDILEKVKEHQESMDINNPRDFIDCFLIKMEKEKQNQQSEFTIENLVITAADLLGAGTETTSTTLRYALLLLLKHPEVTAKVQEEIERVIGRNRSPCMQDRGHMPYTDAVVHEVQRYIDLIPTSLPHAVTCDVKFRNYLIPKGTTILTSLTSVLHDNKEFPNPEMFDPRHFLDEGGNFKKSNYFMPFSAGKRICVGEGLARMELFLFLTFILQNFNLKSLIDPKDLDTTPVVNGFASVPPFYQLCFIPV
CYP2C9, sequence (P11712 whole entry): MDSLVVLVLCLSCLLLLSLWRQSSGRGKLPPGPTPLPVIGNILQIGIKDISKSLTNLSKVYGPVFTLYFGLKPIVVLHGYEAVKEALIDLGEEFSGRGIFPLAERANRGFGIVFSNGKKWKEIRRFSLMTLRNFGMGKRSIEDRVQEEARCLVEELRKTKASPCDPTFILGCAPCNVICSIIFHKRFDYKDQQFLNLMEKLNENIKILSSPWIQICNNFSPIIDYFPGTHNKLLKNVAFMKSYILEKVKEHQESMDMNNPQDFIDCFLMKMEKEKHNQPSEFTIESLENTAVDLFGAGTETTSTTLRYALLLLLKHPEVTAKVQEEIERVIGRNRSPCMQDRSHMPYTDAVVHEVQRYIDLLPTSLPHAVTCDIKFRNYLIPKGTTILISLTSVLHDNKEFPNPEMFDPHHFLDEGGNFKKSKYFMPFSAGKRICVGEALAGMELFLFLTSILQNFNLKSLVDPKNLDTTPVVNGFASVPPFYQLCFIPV

SMILES: OC1(c2ccc(Cl)cc2)c2ccccc2C2=NCCN21 (centres unmarked) [Compound A, 5-(4-chlorophenyl)-2,3-dihydroimidazo[1,2-b]isoindol-5-ol, reference compound]
- inhibition at 10 µM (CYP2C9): 10.2%

SMILES: Clc1ccc(C2(OCC3OCCO3)c3ccccc3C3=NCCN32)cc1 (centres unmarked) [Compound I-19]
- % unbound in plasma ([1]; 2 μM, 6 hours of dialysis, 37° C.): 3.72±0.564%
- fraction unbound to plasma ([1]; 2 μM, equilibrium dialysis): 0.0372
- % recovery, plasma ([1]; 6 hours of dialysis): 57.1±0.567%
- % Recovery [1, 2]: 87.9 ± 3.05%
- % Unbound [1, 2]: 1.43%
- % Recovery [1, 3]: 80.1 ± 2.93%
- % Unbound [1, 3]: 1.91 ± 0.158%
- % Recovery [1, 4]: 67.6 ± 3.41%
- % Unbound [1, 4]: 3.20 ± 0.700%
- % Recovery [1, 5]: 57.1 ± 0.567%
- % Unbound [1, 5]: 3.72 ± 0.564%
- Inhibition at Highest Test Article Concentration (CYP2C19; 2C19, Mephenytoin, at 50 μM): 83.2 at 50 μM %
- IC50 (CYP2C19; microsomes): 17.3 µM
- One-way analysis of variance F, immobility on the TST (C57BL/6 mice; 0.3, 1.0, 3.0, 10.0 mg/kg IP vs control, 5 groups): 4.71
- immobility (%) (C57BL/6 mice; 0.3, 1.0, 3.0 and 10.0 mg/kg, IP, 30 min prior to TST): significant reduction in immobility (%) at all doses tested
- decrease of immobility compared to vehicle (C57BL/6 mice; 0.3-10 mg/kg IP, depending on the dose): 26-38%
- Dunnett's Multiple Comparison Test Significant? P < 0.05?, immobility on the TST (C57BL/6 mice; Control vs 0.3 mg/kg IP): Yes
- Dunnett's Multiple Comparison Test q, immobility on the TST (C57BL/6 mice; Control vs 0.3 mg/kg IP): 2.592
- Dunnett's Multiple Comparison Test Mean Diff., immobility on the TST (C57BL/6 mice; Control vs 0.3 mg/kg IP): 19.9
- Dunnett's Multiple Comparison Test Significant? P < 0.05?, immobility on the TST (C57BL/6 mice; Control vs 1.0 mg/kg IP): Yes
- Dunnett's Multiple Comparison Test q, immobility on the TST (C57BL/6 mice; Control vs 1.0 mg/kg IP): 3.739
- Dunnett's Multiple Comparison Test Mean Diff., immobility on the TST (C57BL/6 mice; Control vs 1.0 mg/kg IP): 28.7
- Dunnett's Multiple Comparison Test Significant? P < 0.05?, immobility on the TST (C57BL/6 mice; Control vs 3.0 mg/kg IP): Yes
- Dunnett's Multiple Comparison Test q, immobility on the TST (C57BL/6 mice; Control vs 3.0 mg/kg IP): 3.773
- Dunnett's Multiple Comparison Test Mean Diff., immobility on the TST (C57BL/6 mice; Control vs 3.0 mg/kg IP): 28.96
- Dunnett's Multiple Comparison Test Significant? P < 0.05?, immobility on the TST (C57BL/6 mice; Control vs 10.0 mg/kg IP): Yes
- Dunnett's Multiple Comparison Test q, immobility on the TST (C57BL/6 mice; Control vs 10.0 mg/kg IP): 2.626
- Dunnett's Multiple Comparison Test Mean Diff., immobility on the TST (C57BL/6 mice; Control vs 10.0 mg/kg IP): 20.16
